Literature values as cited in US20100273829A1, “Methods for Treating Disorders Associated with Hyperlipidemia in a Mammal” (priority 2005, published 2010).
“Also recorded” adds a separate entry of the source. Read-outs that look alike come from different tables or passages of the source.

How the values were obtained:
[1] = ezetimibe 10 mg/day added to maximal statin regimen (80 mg/day), hoFH patients

For O=C(NC1CCN(CCCCC2(C(=O)NCC(F)(F)F)c3ccccc3-c3ccccc32)CC1)c1ccccc1-c1ccc(C(F)(F)F)cc1 [BMS-201038, N-(2,2,2-Trifluorethyl)-9-[4-[4-[[[4′-(trifluoromethyl)[1,1′biphenyl]-2-Yl]carbonyl]amino]-1-piperidinyl]butyl]9H-fluorene-9-carboxamide], the adverse events (patients, 25 mg/day BMS-201038 monotherapy) is listed as “gastrointestinal perturbations, abnormalities in liver function, and hepatic steatosis; also recorded: gastrointestinal disorders, abnormalities in liver function and/or hepatic steatosis”.

For O=C1[C@H](CC[C@H](O)c2ccc(F)cc2)[C@@H](c2ccc(O)cc2)N1c1ccc(F)cc1 [ezetimibe], the “total reduction of LDL-C levels” value [1] is given as 27%.

For Cc1cc(C)c2c3ccccc3n(Cc3ccc([C@@H](C(=O)N[C@H](CO)c4ccccc4)C4CCCC4)cc3)c2n1 [implitapide, (2S)-2-cyclopentyl-2-[4-[(2,4-dimethyl-9H-pyrido[2,3-b]indol-9-yl)methyl]phenyl]-N-[(1S)-2-hydroxy-1-phenylethyl]ethanamide], the therapeutic efficacy (clinical studies, implitapide 80 mg/day or greater) is given as “therapeutically effective” and the adverse events (clinical studies, implitapide 80 mg/day or greater (80 mg/day, 160 mg/day)) is given as “gastrointestinal disturbances, abnormalities in liver function, and hepatic steatosis; also recorded: gastrointestinal disorders, abnormalities in liver function and/or hepatic steatosis”.
